Assay results published in patent publication US20090314217A1, “APPARATUS AND METHOD FOR TREATING NON-HUMAN MAMMALS” (Under The Boardwalk Properties 8 (Proprietary) Limited, priority 2006, published 2009).
Like-named read-outs stand apart in the source and are kept apart here.

Experiments:
[1] = Haematocrit in horses with billiary treated in apparatus 10; assay type: in vivo, horse; details: after two treatment sessions, increased from 31
[2] = Blood oxygen tests immediately before and after transdermal ozone therapy (Table 2); assay type: in vivo, horse; details: for PO2 / SO2: post-treat (immediately after therapy); for K+ blood concentration / Na+ blood concentration: post-treat; for K+ blood concentration: normal range 5.3-3.0; for Na+ blood concentration: normal range 150.0-133.0
Method: Blood tests were also conducted for three horses to determine when transdermal ozone therapy should be provided. The horses were Shamon, Pauli and Sinbad. The blood tests were conducted immediately before transdermal ozone therapy and immediately thereafter. For the horse Shamon, blood tests were also conducted 12 hours and 24 hours after transdermal ozone therapy.

Work on O=[O+][O-] [ozone] yielded a haematocrit [1] of 38%, a PO2 ([2]; horse Pauli, pre-treat 39.30) of 49.20 mmHg and an SO2 ([2]; horse Pauli, pre-treat 80.30) of 87.10%. The “K+ blood concentration” value ([2]; horse Pauli, pre-treat 3.73) was 4.37 mmol/L, the “Na+ blood concentration” value ([2]; horse Pauli, pre-treat 143.00) was 144.30 mmol/L and the PO2 ([2]; horse Shamon, pre-treat 40.00) was 52.70 mmHg. The SO2 ([2]; horse Shamon, pre-treat 74.60) was 90.50%, the “K+ blood concentration” value ([2]; horse Shamon, pre-treat 3.41) was 4.09 mmol/L and the “Na+ blood concentration” value ([2]; horse Shamon, pre-treat 136.00) was 148.30 mmol/L. The PO2 ([2]; horse Sinbad, pre-treat 35.90) was 48.00 mmHg, the SO2 ([2]; horse Sinbad, pre-treat 70.60) was 86.40% and the “K+ blood concentration” value ([2]; horse Sinbad, pre-treat 3.49) was 3.04 mmol/L. For the same compound, the “Na+ blood concentration” value ([2]; horse Sinbad, pre-treat 147.40) was 150.20 mmol/L, the “dehydration effect of transdermal ozone therapy” value ([2]; horses Shamon, Pauli, Sinbad) was “no dehydration effect” and the “Na+, K+ and Cl- blood concentrations versus normal ranges” value ([2]; horses Shamon, Pauli, Sinbad, before and after therapy) was “remained within normal ranges”. The “discomfort during the treatment” value (five horses, during treatment) was “none of the horses appeared to be uncomfortable”, the “respiration of the horses during treatment” value (five horses, during treatment) was “increased” and the “motion marks in the rest of the ride” value (horse Moniq, after treatment on day 1 and day 2, motion 1 throughout day 1) was “no motion marks”. The “muscle spasms found by physiotherapist” value (horse Moniq, day 2 and day 3 of race, lumbar spasms confirmed on day 1 before treatment) was “no muscle spasms”, the creatine kinase (horse Moniq, treated on day 1 and day 2 of race, lowered from 3873) was 706 and the “rider's report on second and third days of the race” value (horse Ophelia, dehydrated and fatigued on day 1, treated after first and second day) was “felt very strong and consistent”. The “performance on third day of the race” value (horse Shamon, severe fatigue by day 2, treated in the afternoon of day 2, finished fifteenth) was “rode very well”, the “CK and AST levels” value (horses that presented symptoms of tying-up) was “marked decrease” and the “occurrence of muscle spasms” value (horses treated transdermally with ozone) was “significantly reduced”. The “energy levels and stamina” value (horses with general fatigue from constant hard work and competition) was “marked improvement”, the “motion marks or stiffness during the race” value (mare Pauli, pre-treatments before the race, history of gluteal muscle spasms and tying up, finished fourteenth) was “no motion marks or stiffness” and the “owner's report on second and third days of the race” value (mare Viola, treated on first and second day) was “felt much stronger and looser”. The aspertine amino transferase (mare Viola, treated on first and second day, lowered from more than 2000) was 1814 U/L, the creatine kinase (mare Viola, tying up on day 1, treated on first and second day, lowered from 5896) was 1599 IU/K and the “average heart-rate during treatment” value (non-accustomed horses, enclosure 42-45 °C, oxygen flow 1 l/min to ozonator) was 42 beats per minute. The “muscle stiffness caused by long periods of intense exercise” value (preliminary study on endurance horses) was “benefit to reduce muscle stiffness”.
